# Experimental data as given in US20020016330A1, “Materials and methods for killing nematodes and nematode eggs” (priority 2000, published 2002).
# How the values were obtained:
# Caenorhabditis elegans [1] = experiment: C. elegans L1 nematicidal dose response, 5 day visual viability score (3-fold dilutions); assay type: in vivo; design: key: Dead: only stiff L1s (no movement); Dead (L4): worms are dead, but at a later larval stage; majority of worms are L1 (based on size); majority of worms are L2 (based on size); majority of worms are L3 (based on size); majority of worms are L4 (based on size); AD: majority of worms are adult; #AD: 5 adult worms or less; B!: sterile (0-25 progeny); B: low broodsize (25-100 progeny); ˜B: moderate broodsize (100-250 progeny); <: reduced broodsize (250-500 progeny); OK: no effect (˜1000+ progeny); conditions: for 5 Day Visual Score V4: 2.6 μM; for 5 Day Visual Score V5: 0.9 μM; for 5 Day Visual Score V3: 7.8 μM; for 5 Day Visual Score V2: 23.3 μM; for 5 Day Visual Score V1: 70 μM; for 5 Day Visual Score V6: 0.3 μM
# Method: Caenorhabditis elegans adults were grown on Nematode Growth Medium (NGM) until they produced eggs, then the adults were removed.
# The eggs were allowed to hatch, and the L1 larvae collected. See The Nematode Caenorhabditis elegans (1988) Cold Spring Harbor Laboratory Press. Using a Matrix Programmable Pipette, the L1s were distributed into 96-well tissue culture plates, 20 L1 in 50 μl NGM per well. Antibiotic/Antimyotic was added to each well, and 1% by weight E. coli strain HB101. The subject anthelmintic compounds were stored at 5 mM in 100% DMSO. 0.7 μl of compounds 1-31 were added to the left-most column of wells to yield a final concentration of 70 μM in 1.4% DMSO, with 1.4% DMSO only as the control. The compounds were then subjected to 5 more 3-fold dilutions from left to right to yield 6 column concentrations of 70 μM, 23.3 μM, 7.8 μM, 2.6 μM, 0.9 μM, and 0.3 μM. Plates were stored in air-tight Rubbermaid plastic boxes at 20° C. The nematodes had cleared all control wells by day 4, and nematode viability was scored by visual examination under a 100× dissecting microscope on day 5. A visual viability scoring system was used as follows:
# Column VI has a compound concentration of 70 μM with sequential 3-fold dilutions reported in columns V2, V3, V4, V5, and V6, respectively, such that the V6 concentration was 0.3 μM.
# (§1) The nematicidal activity of anthelmintic Compositions 48-68 were determined in accordance with the procedure outlined in Example 2.
# Caenorhabditis elegans [2] = experiment: Initial HTS Run (mOD, % Run, visual score); conditions: in vivo
# Method: as §1
# Caenorhabditis elegans [3] = experiment: Follow-up HTS Run (mOD, % Run, visual score); conditions: in vivo
# Method: as §1
# [4] = Table 3, procedure of Example 2
SMILES,5 Day Visual Score V4 (Caenorhabditis elegans [1]; scored day 5),5 Day Visual Score V5 (Caenorhabditis elegans [1]; scored day 5),5 Day Visual Score V3 (Caenorhabditis elegans [1]; scored day 5),5 Day Visual Score V2 (Caenorhabditis elegans [1]; scored day 5),5 Day Visual Score V1 (Caenorhabditis elegans [1]; scored day 5),5 Day Visual Score V6 (Caenorhabditis elegans [1]; scored day 5),also measured
CCCCOc1ccc(C(=O)N2CC(OCCCc3ccccc3)CC2C(=O)NCc2ccccc2Br)cc1 (centres unmarked) [AKC 102],L3,,,,,,
CCCCOc1ccc(-c2noc(C3CCC(NC(=O)c4ccc5c(c4)OCO5)CC3)n2)cc1 (centres unmarked) [AKC 103],,L4/#AD/B,Dead(L4),Dead(L3/L4,,,
CCOc1ccccc1C1=NOC(c2cccc3ccccc23)C1C(=O)NCc1ccc(OC(F)(F)F)cc1 (centres unmarked) [AKC 105],L2/Dead(L,L2/Dead(L,L2/Dead(L3),L2/Dead(L3),L2/Dead(L3),,
O=C(Nc1ccc(OC(F)(F)F)cc1)NC1CCC(c2nc(-c3ccccc3)no2)CC1 (centres unmarked) [AKC 107],Dead(L4),,,Dead(L2/L3),Dead,L2/Dead(L,
O=C(Nc1ccc(Br)cc1)N1CCC(c2nc(-c3ccccc3)no2)CC1 [AKC 108],L1,,L1,Dead,Dead,,
O=C(NCCc1ccccc1F)C1C(c2ccccc2Cl)=NOC1c1ccc(-c2ccccc2)cc1 (centres unmarked) [AKC 110],L1,L1,L1,L1,L1,L1,
COc1ccccc1-c1noc(C(C)CNC(=O)Nc2ccc(OC(F)(F)F)cc2)n1 (centres unmarked) [AKC 111],Dead(L3/L,,L2,Dead,Dead,OK (no effect (˜1000+ progeny)),
Cc1ccc(-c2noc(C3CCC(CNC(=O)Nc4ccc(OC(F)(F)F)cc4)CC3)n2)cc1C (centres unmarked) [AKC 112],,#AD/˜B,,,,OK (no effect (˜1000+ progeny)),
O=C(NCC1CCC(c2nc(-c3ccccc3)no2)CC1)Nc1ccc(OC(F)(F)F)cc1 (centres unmarked) [AKC 113],Dead(L2/L,,Dead,Dead,Dead,L4/#AD/B,
O=C(Nc1ccc(Br)cc1)NC1CCC(c2nc(-c3ccccc3)no2)CC1 (centres unmarked) [AKC 114],L3/Dead(L,,L3,L3/Dead(L4),Dead,,
O=C(NCCCCCc1nc(-c2ccccc2)no1)Nc1ccc(OC(F)(F)F)cc1 [AKC 115],Dead(L2),Dead(L2/L,L2/Dead(L2),Dead(L2/L3),Dead,,
CC(C)(C)C1=NOC(c2ccc(-c3ccccc3)cc2)C1C(=O)NCCc1ccccc1F (centres unmarked) [AKC 120],,#AD/˜B,L1,,L1,OK (no effect (˜1000+ progeny)),
COc1ccc(C2=NOC(c3ccc(-c4ccccc4)cc3)C2C(=O)NCCc2ccccc2F)cc1 (centres unmarked) [AKC 121],#AD/˜B,,,L1,L1,,
CCOc1ccc(C2ON=C(c3ccc(F)cc3)C2C(=O)NCCc2ccc(F)cc2)cc1 (centres unmarked) [AKC 122],,,,L1,Dead,OK (no effect (˜1000+ progeny)),
CCOc1ccc(C2ON=C(c3ccc(N(C)C)cc3)C2C(=O)NCCc2ccc(F)cc2)cc1 (centres unmarked) [AKC 123],,,,,L1,#AD/˜B,
CCOc1cccc(C2ON=C(c3ccccc3OCC)C2C(=O)NCCc2ccc(OC)c(OCC)c2)c1 (centres unmarked) [AKC 124],L4/#AD/B,L4/#AD/B,,,,L4/#AD/B,
CCOc1cccc(C2ON=C(c3ccccc3OCC)C2C(=O)NCc2ccc(OC(F)(F)F)cc2)c1 (centres unmarked) [AKC 125],L2,,L2,L2/Dead(L4),L2/Dead(L3),,
CCCCOc1ccc(C(=O)N2CC(OCCCc3ccccc3)CC2C(=O)NCc2ccccc2OC)cc1 (centres unmarked) [AKC 126],#AD/˜B,,,,,#AD/˜B,
Cc1ccc(C(CC(=O)c2ccccc2)Nc2ccc(I)cc2)o1 (centres unmarked) [AKC 128],L1,#AD/˜B,Dead,Dead,Dead,OK (no effect (˜1000+ progeny)),
Cc1ccc(C(CC(=O)c2ccccc2)Nc2ccc(I)cc2F)o1 (centres unmarked) [AKC 129],,OK (no effect (˜1000+ progeny)),,Dead,Dead,,
CCC(=O)C(C)C(Nc1cc(Br)c(C)c(Br)c1)c1ccc(C)o1 (centres unmarked) [AKC 131],#AD/˜B,#AD/˜B,#AD/˜B,L1,Dead,,
CCCc1ccc(C(Nc2ccc(-c3ccccc3)cc2)C2CCCCC2=O)cc1 (centres unmarked) [AKC 132],,,Dead,Dead,Dead(L2),Dead,
Fc1ccc(N2CCN(c3nc(NCc4ccc(C(F)(F)F)cc4)ns3)CC2)cc1 [AKC 135],,,,L1,Dead,,
CC(C)(C)c1csc(NC(=O)Cc2cn(Cc3ccccc3Cl)c3ccc(Cl)cc23)n1 [AKC 157],,,,,,,5 Day Visual Score V6 (Caenorhabditis elegans [1]; [4]): OK (no effect (˜1000+ progeny)); 5 Day Visual Score V5 (Caenorhabditis elegans [1]; [4]): OK (no effect (˜1000+ progeny)); 5 Day Visual Score V4 (Caenorhabditis elegans [1]; [4]): < (reduced broodsize (250-500 progeny)); 5 Day Visual Score V3 (Caenorhabditis elegans [1]; [4]): < (reduced broodsize (250-500 progeny)); 5 Day Visual Score V2 (Caenorhabditis elegans [1]; [4]): OK (no effect (˜1000+ progeny)); Initial HTS Run % Run (Caenorhabditis elegans [2]): 98%; Initial HTS Run mOD (Caenorhabditis elegans [2]): 120 mOD; Follow-up HTS Run % Run (Caenorhabditis elegans [3]): 108%; Follow-up HTS Run mOD (Caenorhabditis elegans [3]): 174 mOD
CCC1CCCCN1c1cc(Oc2ccc3oc4ccccc4c3c2)ncn1 (centres unmarked) [AKC 340],,,,L1,L1,,
O=C(NCCc1ccccc1F)C1C(c2ccc(F)cc2)=NOC1c1ccc(-c2ccccc2)cc1 (centres unmarked) [AKC 2153],,,,L1,L1,,
